Test system: DRG neurons
Experiment: Axon growth in dissociated DRG cultures
Format: cell-based, rat
Settings: 10 μM Tat-fused peptide added to DRG cultures immediately after plating
Method: Cell culture. For primary neuronal cultures, L4-5 DRG were harvested in Hybernate-A medium (BrainBits) and then dissociated as described. After centrifugation and washing in DMEM/F12 (Life Technologies), cells were resuspended in DMEM/F12, 1×N1 supplement (Sigma), 10% fetal bovine serum (Hyclone), and 10 μM cytosine arabinoside (Sigma). Dissociated DRGs were plated immediately on laminin/poly-L-lysine-coated coverslips or transfected (see below) and then plated on coated coverslips.
[…] Neurite outgrowth was assessed 24 h after addition of peptides. For the cortical cultures, 10 μM peptide was applied to the axonal compartment at 3 d in vitro (DIV) and axonal growth was assessed at 6 DIV. For iMotor neurons, 20 μM peptides were immediately added and neurite growth was assessed 24 h later.
For neurite outgrowth, images from 60 h DRG cultures were analyzed for neurite outgrowth using WIS-Neuromath. Axon morphology was visualized using GFP and/or NF immunofluorescence as described. Differentiated hiPSC neuron image acquisition and neurite length quantification was performed using Arrayscan XTI (Thermo Fisher).

Q: Which axon length does the source give for “EESEEEVEEPEENQQSPEVV-YGNKKNNQNNN (EESEEEVEEPEENQQSPEVVYGNKKNNQNNN; listed as Rattus norvegicus) [147-166, cell-permeable Tat fusion peptide corresponding to residues 147-166 of rat G3BP1]” here?
A: increased axon length

Source: patent publication US20230190887A1, “TARGETING G3BP AGGREGATION TO PREVENT NEURODEGENERATION” (priority 2019, published 2023)
